Source: the supplement of paper PMC10949913

Columns and labels:
Assay in all cases: area under concentration-response curve (viability) (AUC (a.u.)); higher = less active
Conditions in all cases: 48 h
CU-ACC1 = tested on: CU-ACC1
Method in brief: (§1)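 For each of three adrenocortical carcinoma cell lines, 500–1,000 cells/well were placed in 5 µL medium in 1,536-well plates. A 23 nL volume of every library compound was added at 11 concentrations. Following 48 h, a 15-minute room-temperature CellTiter-Glo step preceded luminescence reading, with signals normalised per plate to vehicle and empty-well controls. AC50 and area under the curve were derived by curve fitting, retaining only inhibitory or non-responding curve classes.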

CU-ACC2 = tested on: CU-ACC2
Method in brief: as §1

NCI-H295R = tested on: NCI-H295R
Method in brief: as §1

Row | Structure (SMILES) | area under concentration-response curve (CU-ACC1) | area under concentration-response curve (CU-ACC2) | area under concentration-response curve (NCI-H295R)
1 | COC1=CC(=C2C(=O)N\C(=N/C2=C1)C3=CC(=C(OCCO)C(=C3)C)C)OC | 532 | 532 | 541
2 | CC(C)(C)c1nc(-c2cccc(N[S+](=O)([O-])c3c(F)cccc3F)c2F)c(-c2ccnc(N)n2)s1 | 542 | 608 | 542
3 | N#CCC1(n2cc(-c3ncnc4[nH]ccc34)cn2)CN(C2CCN(C(=O)c3ccnc(C(F)(F)F)c3F)CC2)C1 | 460 | 453 | 508
4 | CC1=C(/C=C/C(C)=C/C=C/C(C)=C/C=C/C=C(C)/C=C/C=C(C)/C=C/C2=C(C)CCCC2(C)C)C(C)(C)CCC1 | 544 | 617 | 574
5 | CC1(C)Cc2c(sc(NC(=S)NC(=O)c3ccccc3)c2C(=O)O)CO1 | 490 | 586 | 522
6 | N#CN1CCC[C@@H](n2nc(-c3ccc(Oc4ccc(F)cc4F)cc3)c(C(N)=O)c2N)C1 | 487 | 607 | 553
7 | Fc1ccc(Cl)cc1-c1nc(Nc2ccncc2)c2nccnc2n1 | 553 | 612 | 549
8 | C/C1=C/C[C@@H](/C(C)=C/c2csc(C)n2)OC(=O)C[C@H](O)C(C)(C)C(=O)[C@H](C)[C@@H](O)[C@@H](C)CCC1 | 480 | 567 | 426
9 | N#Cc1cccc(-c2c[nH]c3ncnc(N4CCOCC4)c23)c1 | 508 | 595 | 553
10 | COc1ccc(CCN2CCN(CCCc3ccccc3)CC2)cc1OC | 541 | 627 | 562
11 | CC(=O)N1c2ccc(-c3ccc(C(=O)O)cc3)cc2[C@H](Nc2ccc(Cl)cc2)C[C@@H]1C | 380 | 548 | 497
12 | CC(C)C/1=C(NC2=C(C=N[N]2C1=O)C#N)\C3=CC=CC=C3 | 497 | 580 | 480
13 | CN(Cc1ccccc1)C(=O)c1ccc([S+](=O)([O-])Nc2ccccc2)cc1 | 491 | 550 | 519
14 | CCc1c(C(=O)C(N)=O)c2c(OCC(=O)O)cccc2n1Cc1ccccc1 | 572 | 599 | 550
15 | CCC[C@@H]1C[C@@H](C(=O)N[C@@H]([C@H]2O[C@H](SC)[C@H](O)[C@@H](O)[C@H]2O)[C@H](C)Cl)N(C)C1 | 527 | 458 | 541
16 | N[C@@H]1CONC1=O | 533 | 497 | 559
17 | CCOC(=O)[C@H](CCc1ccccc1)N[C@H]1CCc2ccccc2N(CC(=O)O)C1=O | 492 | 592 | 520
18 | COC1=CC=CC=C1C2=CC=CC(=C2)C/3=C(O)/C4=CC(=C(Cl)C=C4NC3=O)C#N | 542 | 589 | 562
19 | CN1N(C2=CC=CC=C2)C(=O)C(=C1/C3=CC=CC=C3)/C(=O)C4=CC=C(C)C(=C4N)C5=CC=C6N=C(C)C=CC6=C5 | 531 | 634 | 553
20 | Cc1ccc([S+](=O)([O-])OCC(=O)Nc2ccc(C(=O)O)c(O)c2)cc1 | 543 | 589 | 546
21 | CN[C@@H](C)C(=O)N[C@@H]1C(=O)N(Cc2c(C)ccc3ccccc23)c2ccc(C#N)cc2N(C(C)=O)[C@H]1C | 501 | 474 | 549
22 | CN(CCOc1ccc(CC2SC(=O)NC2=O)cc1)c1ccccn1 (stereo not drawn) | 515 | 644 | 576
23 | C[C@@H](N)[C@H]1CC[C@H](C(=O)Nc2ccncc2)CC1 | 472 | 487 | 448

Row | Structure (SMILES) | area under concentration-response curve (CU-ACC1) | area under concentration-response curve (CU-ACC2) | area under concentration-response curve (NCI-H295R)
24 | CCCCCCNC(=O)N1\C=C(F)/C(=O)NC1=O | 513 | 633 | 589
25 | CN[C@@H](C)C(=O)N[C@H](C(=O)N1CCC[C@H]1C(=O)Nc1sc(-c2ncco2)nc1-c1ccccc1)C1CCCCC1 | 457 | 530 | 461
26 | Cc1nc[nH]c1CN1CCN(C(=O)N[C@@H](CC(C)C)C(=O)O)[C@@H](Cc2ccccc2)C1=O | 576 | 621 | 545
27 | Cc1n[nH]c2ncc(C(=O)N3CCC[C@H]3c3ccc(Cl)cc3)cc12 | 414 | 540 | 503
28 | C=CC(=O)N1CCC(CNc2ncnc(N)c2-c2ccc(Oc3ccccc3)cc2)CC1 | 550 | 615 | 566
29 | CN(C)c1nc(N(C)C)nc(N(C)C)n1 | 509 | 577 | 476
30 | O=C(CN1C(=O)C2(CCCC2)NC[C@H]1c1cc(F)cc(F)c1)Nc1ccc2c(c1)C[C@@]1(C2)C(=O)Nc2ncccc21 | 463 | 565 | 515
31 | CCOC(=O)c1c(C)n(C)c2ccc(O)cc12 | 536 | 593 | 520
32 | CC[S+](=O)([O-])N1CCC([C@@H](C)n2c(C)c(/C(O)=N/Cc3c(OC)cc(C)nc3O)c3ccccc32)CC1 | 509 | 605 | 537
33 | CCCCn1c(=O)n(Cc2ccccc2F)c(=O)c2nc(Cc3ccc(NC(C)=O)cc3)[nH]c21 | 491 | 543 | 531
34 | CCCC\1=C(/CNC(=O)C2=CC(=CC3=C2C=N[N]3C(C)C)C4=CC=C(N=C4)N5CCN(CC5)C(C)C)C(=O)NC(=C1)\C | 379 | 485 | 472
35 | O=C(C1CCCCC1)N1CC(=O)N2CCc3ccccc3C2C1 (stereo not drawn) | 555 | 631 | 544
36 | C#CCC(Cc1cnc2nc(N)nc(N)c2n1)c1ccc(C(=O)N[C@@H](CCC(=O)O)C(=O)O)cc1 (stereo partly drawn) | 552 | 509 | 546
37 | O=C(NCC1CCCCN1)c1cc(OCC(F)(F)F)ccc1OCC(F)(F)F (stereo not drawn) | 431 | 527 | 525
38 | Nc1ncnc2ccccc12 | 534 | 633 | 566
39 | O=C(NCC(=O)N1CC[C@H](NC2CCC(O)(c3ccc(-c4ncccn4)cn3)CC2)C1)c1cccc(C(F)(F)F)c1 (stereo partly drawn) | 554 | 606 | 560
40 | C[C@@H]1O[C@@H](O[C@@H]2\C=C/C=C\C=C/C=C\C[C@H](C)OC(=O)/C=C\[C@H]3O[C@@H]3C[C@H](O)C[C@]3(O)C[C@@H](O)[C@@H](C(=O)O)[C@H](C2)O3)[C@H](O)[C@H](N)[C@@H]1O | 395 | 572 | 573
41 | NC(=O)c1ccc(-c2nc(-c3ccc4c(c3)OCO4)c(-c3ccccn3)[nH]2)cc1 | 286 | 633 | 509
42 | C[S+](=O)([O-])N(Cc1ccco1)CC(O)Cn1c2ccccc2c2ccccc21 (stereo not drawn) | 477 | 515 | 473
43 | Cn1cc(-c2ccc3nnc(C(F)(F)c4ccc5ncccc5c4)n3n2)cn1 | 478 | 583 | 502
44 | COc1cc2nccc(Oc3ccc(NC(=O)NC4CC4)c(Cl)c3)c2cc1C(N)=O | 516 | 623 | 582
45 | CN(C)[S+](=O)([O-])c1ccc2c(c1)C(=Cc1cc3c([nH]1)CCCC3)C(=O)N2 | 594 | 655 | 576
46 | O=[N+]([O-])c1cnc(Sc2nnc(O)n2-c2ccc3c(c2)OCCO3)s1 | 529 | 611 | 517
